Legend:
[1] = cited from earlier work
[2] = tested on: Pulmonary Fibrosis Induced by Bleomycin in Rats; assay: Bleomycin-induced pulmonary fibrosis model in rats (Example 5); type: in vivo, SD rats
Procedure: This study aims to compare the effects of different administration methods, including oral gavage of EGCG, tracheal nebulization of pirfenidone solution, and tracheal nebulization of EGCG at different doses, on the collagen content in lung tissues and pathological observations of rats with bleomycin-induced pulmonary fibrosis. The therapeutic effect of inhaled EGCG on rat pulmonary fibrosis was evaluated.
The solvents for the EGCG nebulization solution, modeling agents, and their solvents are as described in Example 4. The positive control drug is pirfenidone (purity 99%, pharmaceutical grade), with the solvent components consisting of NaCl and citric acid, forming a clear liquid.
SPF-grade SD rats, 6-9 weeks old with a weight of 200-300g, totaling 88 rats, were randomly divided into the following groups: • Sham operation group (normal control) (8 rats) • Pulmonary fibrosis model control group (10 rats) • Oral gavage EGCG group 1 (10 rats) • Oral gavage EGCG group 2 (10 rats) • Tracheal Nebulization EGCG solution groups 1-4 (10 rats per group, total 40 rats) • Tracheal Nebulization pirfenidone solution group (10 rats)
On D1, the normal control group was administered solvent 2 (saline injection solution, 1 mL/kg) via tracheal nebulization, while all other groups were administered bleomycin (2.5 mg/kg, 1 mL/kg) via tracheal nebulization twice a day (morning and afternoon) to establish the model. On D8, the body weights of the animals were recorded. From D10 to D28, the normal control and pulmonary fibrosis model groups were treated with solvent 1 via tracheal nebulization, while the remaining groups were administered EGCG or pirfenidone once daily at the following doses and administration methods: • Oral gavage EGCG group 1 and 2: 30 mg/kg, 60 mg/kg • Tracheal Nebulization EGCG group 1-4: 0.05 mg/kg, 0.4 mg/kg, 0.8 mg/kg, 1.6 mg/kg • Tracheal Nebulization pirfenidone solution group: 0.9 mg/kg (reference dose from M.W. Surber et al., ATS POSTER, 2014)
On D29, all animals were euthanized for dissection. During the necropsy, the lungs, trachea, and bronchi were examined for abnormalities. Left lung tissue was preserved at below -60°C for hydroxyproline content detection, and right lung tissue was prepared for pathological sectioning. Hematoxylin and eosin (HE) staining and Masson staining were performed for pathological morphological observations and fibrosis evaluation.
All groups were compared to the model group using statistical analysis via Kruskal-Wallis test. The results are indicated as follows: • *P < 0.05: statistically significant difference • **P < 0.01: highly significant difference • ***P < 0.001: extremely significant difference • ****P < 0.0001: extremely highly significant difference

[3] = animal experiments; inhalation; cited from earlier work
[4] = cited from earlier work; remark: listed apart in the source
[5] = nebulized 100 mg vs oral 801 mg

| SMILES | diarrhea in clinical study participants ([1]; oral 150 mg twice daily (BID)) | Hydroxyproline Content ([2]; rat lung tissue, positive control, Inh 0.9 mg/kg once daily D10 to D28, Mean ±SEM) | hydroxyproline content in rat lungs, difference from the model group ([2]; tracheal nebulization of pirfenidone solution 0.9 mg/kg) | photosensitivity reactions in patients ([1]; oral 801 mg three times daily (TID)) | half-life in the lungs [3] | plasma drug concentrations ([4]; inhalation) | Cmax in epithelial lining fluid (ELF) relative to the Cmax of the oral dose (higher) [4, 5] | systemic exposure relative to the oral dose (lower) [4, 5] |
| --- | --- | --- | --- | --- | --- | --- | --- | --- |
| COC(=O)c1ccc2c(c1)NC(=O)/C2=C(\Nc1ccc(N(C)C(=O)CN2CCN(C)CC2)cc1)c1ccccc1 [nintedanib] | up to 61.5% |  |  |  |  |  |  |  |
| Cc1ccc(=O)n(-c2ccccc2)c1 [pirfenidone] |  | 0.587 ± 0.059 µg/µL | not statistically significant | up to 51% | about 10 minutes | 807 to 1370 ng/mL | 35 times | about 15 times |

From patent publication EP4623908A1, “USE OF (-)-EPIGALLOCATECHIN GALLATE COMPOUND” (CF Pharmtech, Inc., priority 2022, dated 2024)
